Consider eight compounds from US20260217767A1, “NOVEL A4B7 THIOETHER PEPTIDE DIMER ANTAGONISTS” (Protagonist Therapeutics, Inc., priority 2014, published 2026).

One experiment has as its target T1, α4β1 (Homo sapiens, UniProt P05556+P13612).
T1 construct: purchased R&D Systems 5668-A4
Put plainly: α4β1-VCAM Competition ELISA. To be noted: thioether peptide dimers, Table 7; read-out: ELISA A4B1. It is filed as binding. An outline of the steps: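 rh VCAM-1-Fc coated plates; α4β1 (final 60 nM) and peptide (final 100 μM) incubated 2 h at 37° C. in 50 mM Tris-HCl pH 7.6, 100 mM NaCl, 1 mM MnCl2 or MgCl2, 0.05% Tween-20. Bound integrin detected with anti-CD49d 9F10 and HRP anti-mouse IgG, TMB read at 450 nm.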
Background: ELISA stands for enzyme-linked immunosorbent assay.

A further experiment addresses Jurkat E6.1 cells (Homo sapiens, UniProt P05556+P13612). The experiment can be described thus: α4β1-VCAM Cell Adhesion Assay. Format: cell-based. To be noted: thioether peptide dimers, Table 7; read-out: Cell Adhesion A4B1. As for the experimental part:
α4β1-VCAM Cell Adhesion Assay
Jurkat E6.1 cells (Sigma #88042803) were cultured in RPMI 1640 HEPES medium (Invitrogen #22400-089) supplemented with 10% serum (Fetal Bovine Serum, Invitrogen #16140-071), 1 mM sodium pyruvate (Invitrogen #11360-070), 2 mM L-glutamine (Invitrogen #25030-081) and Penicillin-Streptomycin (Invitrogen #15140-122) at 100 units of penicillin and 100 μg of streptomycin per ml. The cells were washed two times in DMEM medium (ATCC #30-2002) supplemented with 0.1% BSA, 10 mM HEPES pH 7 and 1 mM MnCl2. The cells were re-suspended in supplemented DMEM medium at a density of 4×10^6 cells/ml.
A Nunc MaxiSorp plate was coated with rh VCAM-1/CD106 Fc chimera (R&D #862-VC) at 400 ng per well in 50 μl per well in 1×PBS and incubated at 4° C. overnight. The solution was then removed by shaking, blocked with 250 μl per well PBS containing 1% BSA, and incubated at 37° C. for 1 hr. The solution was removed by shaking. Peptides were diluted by serial dilution in a final volume of 50 μl per well (2× concentration). To each well, 50 μl of cells (200,000 cells) were added and the plate was incubated at 37° C., 5% CO2 for 30-45 min to allow cell adhesion. The wells were washed manually three times (100 μl per wash) with supplemented DMEM. After the final wash, 100 μl/well of supplemented DMEM and 10 ul/well of MTT reagent (ATTC cat #30-1010K) were added. The plate was incubated at 37° C., 5% CO2 for 2-3 hrs until a purple precipitate is visible. 100 ul of Detergent Reagent (ATTC cat #30-1010K) is added to each well. The plate was covered from the light, wrapped in Parafilm to prevent evaporation, and left overnight at room temperature in the dark. The plate was shaken for 5 min and the absorbance at 570 nm is measured. To calculate the dose response, the absorbance value of control wells not containing cells was subtracted from each test well.

*1 amine or outer side, *2 acyl side, *3 side chain or, on linkers, in order; H or OH if unused. Where a SMILES comes first, the peptide text is derived from it. Bridges are numbered along the chain shown (N, C = ends). Roman numbers before positions name the chains, in order. [ ]: non-standard residue; d: D form. Phe(4-CF3) = N[C@@H](Cc1ccc(C(F)(F)F)cc1)C(=O)O; 1Nal = N[C@@H](Cc1cccc2ccccc12)C(=O)O; Diglycolyl = O=C(COCC(=O)[*:2])[*:1]; NMeR = CN[C@@H](CCCNC(=N)N)C(=O)O; Tic = O=C(O)[C@@H]1Cc2ccccc2CN1; β3hE = N[C@@H](CCC(=O)O)CC(=O)O; X1 = O=C(c1ccccc1C[*:2])[*:1]; Pen = CC(C)(S)[C@H](N)C(=O)O Some results are limits rather than exact numbers.

Chain of Jurkat E6.1 cells (P13612 34-1032): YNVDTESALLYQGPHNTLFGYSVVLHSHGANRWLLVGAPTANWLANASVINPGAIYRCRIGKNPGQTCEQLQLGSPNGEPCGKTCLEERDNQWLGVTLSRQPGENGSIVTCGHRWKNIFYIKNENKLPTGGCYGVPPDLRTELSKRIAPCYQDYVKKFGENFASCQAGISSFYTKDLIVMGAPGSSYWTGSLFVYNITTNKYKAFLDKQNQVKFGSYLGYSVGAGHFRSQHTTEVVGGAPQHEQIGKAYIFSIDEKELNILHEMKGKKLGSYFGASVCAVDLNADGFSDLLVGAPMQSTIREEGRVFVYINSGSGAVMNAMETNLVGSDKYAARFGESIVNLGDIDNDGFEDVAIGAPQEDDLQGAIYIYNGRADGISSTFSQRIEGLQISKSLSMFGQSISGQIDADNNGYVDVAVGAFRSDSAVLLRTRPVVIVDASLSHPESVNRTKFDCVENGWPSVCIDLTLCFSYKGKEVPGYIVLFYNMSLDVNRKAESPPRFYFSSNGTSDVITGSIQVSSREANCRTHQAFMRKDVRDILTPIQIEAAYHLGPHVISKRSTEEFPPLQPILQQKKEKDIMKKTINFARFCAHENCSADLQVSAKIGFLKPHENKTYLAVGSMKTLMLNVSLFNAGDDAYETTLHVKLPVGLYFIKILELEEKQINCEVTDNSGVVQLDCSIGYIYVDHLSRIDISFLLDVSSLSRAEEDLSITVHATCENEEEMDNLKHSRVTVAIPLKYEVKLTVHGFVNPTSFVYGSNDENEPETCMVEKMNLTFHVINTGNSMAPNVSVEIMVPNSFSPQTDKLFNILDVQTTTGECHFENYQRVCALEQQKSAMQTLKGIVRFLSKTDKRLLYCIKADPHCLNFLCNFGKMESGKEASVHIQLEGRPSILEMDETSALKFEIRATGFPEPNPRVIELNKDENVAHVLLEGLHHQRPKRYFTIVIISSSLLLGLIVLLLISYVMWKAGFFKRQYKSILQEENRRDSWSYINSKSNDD
Chain of Jurkat E6.1 cells (P05556 21-798): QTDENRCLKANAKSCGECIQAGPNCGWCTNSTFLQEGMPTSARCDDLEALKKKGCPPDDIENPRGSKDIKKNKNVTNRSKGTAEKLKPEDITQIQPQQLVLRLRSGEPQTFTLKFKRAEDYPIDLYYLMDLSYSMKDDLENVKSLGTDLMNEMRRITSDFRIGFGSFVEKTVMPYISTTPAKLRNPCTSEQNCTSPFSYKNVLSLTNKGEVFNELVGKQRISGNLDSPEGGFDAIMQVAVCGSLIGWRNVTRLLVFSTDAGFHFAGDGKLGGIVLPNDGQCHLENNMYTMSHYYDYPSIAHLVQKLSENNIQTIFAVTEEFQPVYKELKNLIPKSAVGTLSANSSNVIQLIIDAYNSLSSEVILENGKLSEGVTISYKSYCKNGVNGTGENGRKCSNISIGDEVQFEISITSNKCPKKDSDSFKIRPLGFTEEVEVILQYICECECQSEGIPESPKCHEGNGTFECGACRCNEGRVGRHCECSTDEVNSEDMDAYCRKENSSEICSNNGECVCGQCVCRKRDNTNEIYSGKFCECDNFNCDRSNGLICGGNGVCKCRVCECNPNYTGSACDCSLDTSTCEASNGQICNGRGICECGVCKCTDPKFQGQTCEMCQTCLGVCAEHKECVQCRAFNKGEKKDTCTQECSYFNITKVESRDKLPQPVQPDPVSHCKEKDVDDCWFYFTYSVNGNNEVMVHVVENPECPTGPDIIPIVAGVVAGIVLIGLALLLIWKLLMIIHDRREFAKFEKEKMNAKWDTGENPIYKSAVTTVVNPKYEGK
T1 sequence (P13612 34-977 limits assumed): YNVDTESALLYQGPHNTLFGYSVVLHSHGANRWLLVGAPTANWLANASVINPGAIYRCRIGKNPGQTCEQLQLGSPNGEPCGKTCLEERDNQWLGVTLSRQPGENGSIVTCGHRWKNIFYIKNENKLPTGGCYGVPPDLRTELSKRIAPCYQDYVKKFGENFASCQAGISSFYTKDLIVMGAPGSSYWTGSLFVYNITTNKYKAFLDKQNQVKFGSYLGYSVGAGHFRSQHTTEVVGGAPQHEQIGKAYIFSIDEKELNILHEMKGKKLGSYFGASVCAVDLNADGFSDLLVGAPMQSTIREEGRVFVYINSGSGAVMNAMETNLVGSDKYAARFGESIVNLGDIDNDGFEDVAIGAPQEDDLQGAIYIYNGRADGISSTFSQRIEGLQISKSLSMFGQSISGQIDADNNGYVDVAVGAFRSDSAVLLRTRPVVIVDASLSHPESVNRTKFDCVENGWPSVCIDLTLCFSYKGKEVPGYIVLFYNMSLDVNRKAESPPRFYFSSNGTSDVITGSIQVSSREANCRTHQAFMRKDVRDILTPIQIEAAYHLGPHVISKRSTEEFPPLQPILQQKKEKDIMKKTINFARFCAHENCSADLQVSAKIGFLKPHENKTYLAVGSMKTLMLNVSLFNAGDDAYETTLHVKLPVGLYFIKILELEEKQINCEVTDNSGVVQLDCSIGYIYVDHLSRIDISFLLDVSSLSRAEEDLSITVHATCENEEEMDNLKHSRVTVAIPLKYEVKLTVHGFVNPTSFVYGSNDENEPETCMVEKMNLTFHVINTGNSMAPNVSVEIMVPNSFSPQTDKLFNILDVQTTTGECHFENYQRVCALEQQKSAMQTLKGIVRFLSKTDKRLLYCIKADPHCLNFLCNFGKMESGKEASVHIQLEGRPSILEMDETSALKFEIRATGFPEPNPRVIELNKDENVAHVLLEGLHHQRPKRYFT
T1 sequence (P05556 21-728 limits assumed): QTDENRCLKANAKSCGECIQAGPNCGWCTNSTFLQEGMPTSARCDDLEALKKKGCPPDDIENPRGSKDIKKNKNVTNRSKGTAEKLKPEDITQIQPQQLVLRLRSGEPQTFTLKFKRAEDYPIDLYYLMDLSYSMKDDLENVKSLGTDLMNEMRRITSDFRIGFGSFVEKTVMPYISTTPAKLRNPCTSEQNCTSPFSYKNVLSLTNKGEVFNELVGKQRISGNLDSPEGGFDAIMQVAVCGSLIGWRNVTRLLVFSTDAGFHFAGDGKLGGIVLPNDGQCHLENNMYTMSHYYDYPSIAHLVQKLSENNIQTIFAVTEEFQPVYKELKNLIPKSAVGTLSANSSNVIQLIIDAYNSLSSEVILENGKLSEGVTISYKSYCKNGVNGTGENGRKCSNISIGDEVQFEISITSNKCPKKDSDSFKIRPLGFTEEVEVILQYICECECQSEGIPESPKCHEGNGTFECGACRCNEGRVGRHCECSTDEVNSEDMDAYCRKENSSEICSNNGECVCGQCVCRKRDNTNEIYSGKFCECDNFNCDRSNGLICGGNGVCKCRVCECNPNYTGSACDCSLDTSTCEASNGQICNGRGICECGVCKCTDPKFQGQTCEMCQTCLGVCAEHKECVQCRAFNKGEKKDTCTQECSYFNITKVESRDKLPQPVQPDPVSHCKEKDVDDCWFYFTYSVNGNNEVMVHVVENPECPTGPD

Regarding `CC(C)C[C@@H]1NC(=O)[C@H]([C@@H](C)O)NC(=O)[C@H](CC(=O)O)NC(=O)[C@H](CO)NC(=O)[C@H](CCCNC(=N)N)N(C)C(=O)c2ccccc2CSC[C@H](C(=O)N[C@@H](Cc2c[nH]c3ccccc23)C(=O)N[C@@H](CCC(=O)O)CC(=O)N[C@H](CCCCNC(=O)COCC(=O)NCCCC[C@@H](NC(=O)C[C@H](CCC(=O)O)NC(=O)[C@H](Cc2c[nH]c3ccccc23)NC(=O)[C@H]2CSCc3ccccc3C(=O)N(C)[C@@H](CCCNC(=N)N)C(=O)N[C@@H](CO)C(=O)N[C@@H](CC(=O)O)C(=O)N[C@@H]([C@@H](C)O)C(=O)N[C@@H](CC(C)C)C(=O)N2)C(N)=O)C(N)=O)NC1=O` [compound 156] (I: [NMeR]SDTL[dC]W[β3hE][dK]-NH2 / II: [NMeR]SDTL[dC]W[β3hE][dK]-NH2; linker I:9-II:9 via Diglycolyl; linker I:N-I:6, II:N-II:6 via X1), the IC50 at α4β1 is 25 to 100 nM; on Jurkat E6.1 cells, over 100 µM.
For the compound `CC(C)C[C@@H]1NC(=O)[C@H]([C@@H](C)O)NC(=O)[C@H](CC(=O)O)NC(=O)[C@H](CO)NC(=O)[C@H](CCCNC(=N)N)N(C)C(=O)c2ccccc2CSC(C)(C)[C@@H](C(=O)N[C@@H](Cc2cccc3ccccc23)C(=O)N[C@H](CCC(=O)O)C(=O)N[C@H](CCCCNC(=O)COCC(=O)NCCCC[C@@H](NC(=O)[C@@H](CCC(=O)O)NC(=O)[C@H](Cc2cccc3ccccc23)NC(=O)[C@H]2NC(=O)[C@H](CC(C)C)NC(=O)[C@H]([C@@H](C)O)NC(=O)[C@H](CC(=O)O)NC(=O)[C@H](CO)NC(=O)[C@H](CCCNC(=N)N)N(C)C(=O)c3ccccc3CSC2(C)C)C(N)=O)C(N)=O)NC1=O` [compound 158] (I: [NMeR]SDTL[Pen][1Nal][dE][dK]-NH2 / II: [NMeR]SDTL[Pen][1Nal][dE][dK]-NH2; linker I:9-II:9 via Diglycolyl; linker I:N-I:6, II:N-II:6 via X1), the results for the IC50 at α4β1 and on Jurkat E6.1 cells were 100 to 1000 nM and over 100 µM, respectively.
Take `CC(C)C[C@@H]1NC(=O)[C@H]([C@@H](C)O)NC(=O)[C@H](CC(=O)O)NC(=O)[C@H](CO)NC(=O)[C@H](CCCNC(=N)N)N(C)C(=O)c2ccccc2CSC(C)(C)[C@@H](C(=O)N[C@@H](Cc2ccc(C(F)(F)F)cc2)C(=O)N[C@@H](CCC(=O)O)C(=O)N[C@H](CCCCNC(=O)COCC(=O)NCCCC[C@@H](NC(=O)[C@H](CCC(=O)O)NC(=O)[C@H](Cc2ccc(C(F)(F)F)cc2)NC(=O)[C@H]2NC(=O)[C@H](CC(C)C)NC(=O)[C@H]([C@@H](C)O)NC(=O)[C@H](CC(=O)O)NC(=O)[C@H](CO)NC(=O)[C@H](CCCNC(=N)N)N(C)C(=O)c3ccccc3CSC2(C)C)C(N)=O)C(N)=O)NC1=O` [compound 166] (I: [NMeR]SDTL[Pen][Phe(4-CF3)]E[dK]-NH2 / II: [NMeR]SDTL[Pen][Phe(4-CF3)]E[dK]-NH2; linker I:9-II:9 via Diglycolyl; linker I:N-I:6, II:N-II:6 via X1): at α4β1, the IC50 was 25 to 100 nM.
Take `CC(C)C[C@@H]1NC(=O)[C@H]([C@@H](C)O)NC(=O)[C@H](CC(=O)O)NC(=O)[C@H](CO)NC(=O)[C@H](CCCNC(=N)N)N(C)C(=O)c2ccccc2CSC(C)(C)[C@@H](C(=O)N[C@@H](Cc2cccc3ccccc23)C(=O)N[C@@H](CCC(=O)O)C(=O)N[C@H](CCCCNC(=O)COCC(=O)NCCCC[C@@H](NC(=O)[C@H](CCC(=O)O)NC(=O)[C@H](Cc2cccc3ccccc23)NC(=O)[C@H]2NC(=O)[C@H](CC(C)C)NC(=O)[C@H]([C@@H](C)O)NC(=O)[C@H](CC(=O)O)NC(=O)[C@H](CO)NC(=O)[C@H](CCCNC(=N)N)N(C)C(=O)c3ccccc3CSC2(C)C)C(N)=O)C(N)=O)NC1=O` [compound 167] (I: [NMeR]SDTL[Pen][1Nal]E[dK]-NH2 / II: [NMeR]SDTL[Pen][1Nal]E[dK]-NH2; linker I:9-II:9 via Diglycolyl; linker I:N-I:6, II:N-II:6 via X1): the values for the IC50 on α4β1 and on Jurkat E6.1 cells were 25 to 100 nM and over 100 µM, respectively.
For `CC(C)C[C@@H]1NC(=O)[C@H]([C@@H](C)O)NC(=O)[C@H](CC(=O)O)NC(=O)[C@H](CO)NC(=O)[C@H](CCCNC(=N)N)N(C)C(=O)c2ccccc2CSC(C)(C)[C@@H](C(=O)N[C@@H](Cc2ccc(-c3ccccc3)cc2)C(=O)N[C@H](CCC(=O)O)C(=O)N[C@H](CCCCN)C(N)=O)NC1=O` [compound 178] (HELM PEPTIDE1{[meR].S.D.T.L.[Pen].[O=C([C@H](Cc1ccc(-c2ccccc2)cc1)N[*:1])[*:2]].[dE].[dK].[am]}|CHEM1{[O=C(c1ccccc1C[*:2])[*:1]]}$PEPTIDE1,CHEM1,1:R1-1:R1|PEPTIDE1,CHEM1,6:R3-1:R2$$$V2.0) the same measures were 100 to 1000 nM and over 1 µM.
On the same counts, the results for `CC(C)C[C@@H]1NC(=O)[C@H]([C@@H](C)O)NC(=O)[C@H](CC(=O)O)NC(=O)[C@H](CO)NC(=O)[C@H](CCCNC(=N)N)N(C)C(=O)c2ccccc2CSC[C@@H](C(=O)N2Cc3ccccc3C[C@H]2C(=O)N[C@H](CCC(=O)O)C(=O)N[C@H](CCCCNC(=O)COCC(=O)NCCCC[C@@H](NC(=O)[C@@H](CCC(=O)O)NC(=O)[C@@H]2Cc3ccccc3CN2C(=O)[C@@H]2CSCc3ccccc3C(=O)N(C)[C@@H](CCCNC(=N)N)C(=O)N[C@@H](CO)C(=O)N[C@@H](CC(=O)O)C(=O)N[C@@H]([C@@H](C)O)C(=O)N[C@@H](CC(C)C)C(=O)N2)C(N)=O)C(N)=O)NC1=O` [compound 184] (I: [NMeR]SDTLC[Tic][dE][dK]-NH2 / II: [NMeR]SDTLC[Tic][dE][dK]-NH2; linker I:9-II:9 via Diglycolyl; linker I:N-I:6, II:N-II:6 via X1) are 100 to 1000 nM and over 100 µM.
On the same counts, the results for `CC(C)C[C@@H]1NC(=O)[C@H]([C@@H](C)O)NC(=O)[C@H](CC(=O)O)NC(=O)[C@H](CO)NC(=O)[C@H](CCCNC(=N)N)N(C)C(=O)c2ccccc2CSC(C)(C)[C@@H](C(=O)N[C@@H](Cc2ccccc2)C(=O)N[C@H](CCC(=O)O)C(=O)N[C@H](CCCCNC(=O)COCC(=O)NCCCC[C@@H](NC(=O)[C@@H](CCC(=O)O)NC(=O)[C@H](Cc2ccccc2)NC(=O)[C@H]2NC(=O)[C@H](CC(C)C)NC(=O)[C@H]([C@@H](C)O)NC(=O)[C@H](CC(=O)O)NC(=O)[C@H](CO)NC(=O)[C@H](CCCNC(=N)N)N(C)C(=O)c3ccccc3CSC2(C)C)C(=O)O)C(=O)O)NC1=O` [compound 204] (I: [NMeR]SDTL[Pen]F[dE][dK]-OH / II: [NMeR]SDTL[Pen]F[dE][dK]-OH; linker I:9-II:9 via Diglycolyl; linker I:N-I:6, II:N-II:6 via X1) are 100 to 1000 nM and over 100 µM.
As to `CC(C)C[C@@H]1NC(=O)[C@H]([C@@H](C)O)NC(=O)[C@H](CC(=O)O)NC(=O)[C@H](CO)NC(=O)[C@H](CCCNC(=N)N)N(C)C(=O)c2ccccc2CSC[C@@H](C(=O)N2Cc3ccccc3C[C@H]2C(=O)N[C@H](CCC(=O)O)C(=O)N[C@H](CCCCNC(=O)COCC(=O)NCCCC[C@@H](NC(=O)[C@@H](CCC(=O)O)NC(=O)[C@@H]2Cc3ccccc3CN2C(=O)[C@@H]2CSCc3ccccc3C(=O)N(C)[C@@H](CCCNC(=N)N)C(=O)N[C@@H](CO)C(=O)N[C@@H](CC(=O)O)C(=O)N[C@@H]([C@@H](C)O)C(=O)N[C@@H](CC(C)C)C(=O)N2)C(=O)O)C(=O)O)NC1=O` [compound 207] (I: [NMeR]SDTLC[Tic][dE][dK]-OH / II: [NMeR]SDTLC[Tic][dE][dK]-OH; linker I:9-II:9 via Diglycolyl; linker I:N-I:6, II:N-II:6 via X1), the figures for the IC50 at α4β1 and on Jurkat E6.1 cells were 100 to 1000 nM and over 100 µM, respectively.
